In article PMC11009625, “Antibiotic class with potent in vivo activity targeting lipopolysaccharide synthesis in Gram-negative bacteria” (Proceedings of the National Academy of Sciences of the …, 2024):
≈ marks a conversion by molar mass, not a printed value. Where two headings read alike, the source gives them in different places.

Columns and labels:
in vivo = experiment: in vivo; parameters: species or system NMRI mice; conditions: female, NMRI, mouse, sc
Description: PK and safety studies were done the Latvian Institute for Organic Synthesis (Riga, Latvia) and in vivo efficacy studies were done at Statens Serum Institut (Copenhagen, Denmark). Assays were done in accordance with the relevant permits at the respective sites (SI Appendix). For PK studies, plasma samples were taken from mice dosed subcutaneously and the samples were analyzed by UPLC/MS/MS. For in vivo efficacy studies, neutropenic mice were infected intraperitoneally with 10^6 bacteria and treated with subcutaneously with test compounds 1 h after infection. The mice were euthanized 4 h after treatment and serially diluted samples of blood and peritoneal fluid were plated onto blood agar plates. Complete experimental details available in SI Appendix. […]
In vivo pharmacokinetic studies
Animals. NMRI female mice (10–12 weeks old, 27–33 g, n = 60) were obtained from ENVIGO (The Netherlands) and housed prior to treatment under standard conditions (21–23 °C, 12-h light/dark cycle, relative humidity 45%–65%) with unlimited access to food (R70 diet from […]
Lantmännen) and water. The experimental procedures were performed in accordance with the guidelines of the European Community and local laws and policies (Directive 2010/63/EU), and all of the procedures were approved by Food and Veterinary Service, Riga, Latvia. […]
PK assay in mice. For PK studies mice were dosed subcutaneously (SC) via a single bolus injection (injection volume 10 mL/kg). Blood samples were collected in tubes containing heparin. Blood was sampled from tail vein 15, 30, 60, 120, and 240min after the SC administration of the compounds. Tubes were centrifuged at +4 °C 10,000× g for 3 min. Plasma samples were collected and stored at −20 °C until analysis.
Plasma sample analysis by UPLC/MS/MS. Concentrations of EBL-3599 and EBL-3647 in mouse blood plasma were measured by liquid chromatography tandem mass spectrometry (LC/MS/MS) in positive electrospray ionization (ESI+) in multi reaction monitoring (MRM) mode.
Analyses were performed on a Waters Acquity UPLC system coupled to Waters XEVO TQ-Smicro tandem mass spectrometer. Chromatographical separation was carried out on Waters Acquity BEH C18 column (2.1×50mm, 1.7µm). The column temperature was 30°C, flow rate was 0.4mL/min. Linear gradient elution was applied, solvent A was 0.1% formic acid in water and solvent B was acetonitrile. The gradient program was: 0min – 5% B; 2.5min – 98% B; 4.5min – 98% B; 4.7min – 5% B; 5min – 5% B. Injection volume was 1µL.
Mass spectrometry parameters were obtained experimentally by direct infusion of EBL-3599 and […]
energy was 30 for all transitions. MS/MS transitions for EBL-3647 were 667.80 > 225.90 and 667.80 > 309.96. Cone voltage was 15V and collision energy was 35 and 25, respectively.
Calibration standards and quality control samples were prepared by spiking a blank mouse plasma with a stock solution of analyte to achieve a nominal concentration from 0.08 μg/mL to 80 μg/mL for both analyte.
A sample volume of 20 μL was transferred into a plastic tube and mixed with 300μL acetonitrile/methanol mixture (3:1, v/v) to precipitate proteins. The tubes was vortexed to mix and centrifuged at 10000 rpm for 10 min. 200 μL of supernatant was diluted with 600 μL of 0.1% formic acid and subjected to LC/MS/MS analysis. Samples above the upper limit of calibration should be diluted 10 times with blank plasma extract and reanalyzed. Bioanalysis of samples from each mouse were measured in duplicate and the results averaged.
Bacterial strains and inoculum. E. coli EC 106-09 (EN122) and K. pneumoniae SSI #3010 (EN124) are clinical isolates from Denmark. Bacterial suspensions for inoculation of mice were prepared

K. pneumoniae ATCC 13883 = experiment: Frequency of resistance and agar MIC, K. pneumoniae; format: cell-based; conditions: Klebsiella pneumoniae, ATCC13883, read-out: Agar MIC K. pneumoniae ATCC 13883
Description: (§1) Minimum inhibitory concentration (MIC) values were determined according to the Clinical Laboratory Standards Institute guidelines. Frequency of resistance was determined by plating ~5 × 10^8 bacterial cells on agar-solidified media plates containing test compound at concentrations corresponding to four times the measured solid-media MIC of the strains. Colonies were counted after 24 h, restreaked onto media containing the same concentration of compound, and the MIC remeasured against the assayed compound. Genomic DNA from isolated clones was sequenced by paired-end sequencing on an Illumina MiSeq device. Complete experimental details available in SI Appendix. […]
(§2) Minimum inhibitory concentration (MIC) determination. […] Appropriate inoculation suspension density was assessed using a Sensititre Nephelometer with a Sensititre 0.5 […]
(§3) Frequency of Resistance. Frequency of resistance was assessed by spread plating between […] cfu of a freshly-grown culture of the strain of interest on plates containing a concentration of compound corresponding to 4 times the MIC of the strain (as determined by agar-dilution MIC). […] The frequency of resistance was determined by dividing the number of colonies obtained on the selective plates after 24 hours of growth by the calculated total population plated. […]

E. coli ATCC 25922 = experiment: Frequency of resistance and agar MIC, E. coli; format: cell-based; conditions: Escherichia coli, ATCC25922, read-out: Agar MIC E. coli ATCC 25922
Description: as §1, §2, §3

[1] = test system: clinical MDR E. coli isolates; experiment: MIC, clinical multi-drug resistant E. coli isolates; format: cell-based; conditions: Escherichia coli
Description: as §1
Minimum inhibitory concentration (MIC) determination. Broth microdilution and agar dilution MIC assays were conducted according to CLSI guidelines (M07-2012). Appropriate inoculation suspension density was assessed using a Sensititre Nephelometer with a Sensititre 0.5 […]
McFarland Standard. […]
Whole-genome sequencing and data analysis. Genomic DNA of selected clones was prepared using an Epicentre MasterPure Complete DNA Purification Kit. Whole-genome sequencing libraries were prepared using an Illumina Nextera XT Library Preparation Kit. The libraries were sequenced using an Illumina MiSeq device with a V3 600-cycle reagent kit. Whole-genome sequencing data was analyzed using CLC Genomics Workbench Version 11. To determine the genotype of MDR strains from the ENABLE strain collection, de novo assembled contigs were […]

[2] = test system: A. baumanii BM4454 and efflux-defective BM4652; experiment: MIC, A. baumannii laboratory strains; format: cell-based; conditions: Acinetobacter baumannii
Description: as §1
Minimum inhibitory concentration (MIC) determination. Broth microdilution and agar dilution
MIC assays were conducted according to CLSI guidelines (M07-2012). Appropriate inoculation
suspension density was assessed using a Sensititre Nephelometer with a Sensititre 0.5
McFarland Standard. Serum MICs were conducted in 50% heat-inactivated pooled human

[3] = read-out: MIC A. baumanii BM4454
[4] = read-out: MIC A. baumanii BM4652

| SMILES | AUC (in vivo; 10 mg/kg) [ng·h/mL] | Cmax (in vivo; 10 mg/kg) [ng/mL] | AUC (in vivo; 25 mg/kg) [ng·h/mL] | Cmax (in vivo; 25 mg/kg) [ng/mL] | AUC (in vivo; 50 mg/kg) [ng·h/mL] | Cmax (in vivo; 50 mg/kg) [ng/mL] | AUC (in vivo; 100 mg/kg) [ng·h/mL] | Cmax (in vivo; 100 mg/kg) [ng/mL] | MIC (K. pneumoniae ATCC 13883) [µg/mL] | MIC (E. coli ATCC 25922) [µg/mL] | MIC ([1]; read-out: MIC E. coli EN0134) [µg/mL] | MIC ([1]; read-out: MIC E. coli EN0135) [µg/mL] | MIC ([1]; read-out: MIC E. coli EN0136) [µg/mL] | MIC ([1]; read-out: MIC E. coli EN0137) [µg/mL] | MIC ([1]; read-out: MIC E. coli EN0138) [µg/mL] | MIC ([1]; read-out: MIC E. coli EN0139) [µg/mL] | MIC ([1]; read-out: MIC E. coli EN0303) [µg/mL] | MIC ([1]; read-out: MIC E. coli EN0481) [µg/mL] | MIC [2, 3] [µg/mL] | MIC [2, 4] [µg/mL] |
| --- | --- | --- | --- | --- | --- | --- | --- | --- | --- | --- | --- | --- | --- | --- | --- | --- | --- | --- | --- | --- |
| Cc1cc(C#N)nc(N2CCN(S(=O)(=O)c3ccc(NC(=O)c4cc(CNCCCN)ccc4N(C)S(C)(=O)=O)cc3)CC2)n1.Cl.Cl [EBL-3599] | 22900 | 13000 | 58000 | 27000 | 136000 | 65000 | 349000 | 142000 | 0.5 | 2 | 2 | 2 | 2 | 4 | 2 | 4 | 16 | 2 | > 64 | 32 |
| Cc1cc(C#N)nc(N2CCN(S(=O)(=O)c3ccc(NC(=O)c4cc(CN5CC(CN)C5)ccc4N(C)S(C)(=O)=O)cc3)CC2)n1 [EBL-3647] | 20200 | 12000 | 55300 | 30000 | 140000 | 72000 | 222000 | 130000 | 0.5 (≈ 0.749 µM) | 2 (≈ 2.99 µM) | 2 (≈ 2.99 µM) | 2 (≈ 2.99 µM) | 4 (≈ 5.99 µM) | 2 (≈ 2.99 µM) | 4 (≈ 5.99 µM) | 4 (≈ 5.99 µM) | 16 (≈ 24 µM) | 1 (≈ 1.5 µM) | > 64 | 64 (≈ 95.8 µM) |
